According to US20100137396A1, “TREATMENT OF ESOPHAGEAL HIGH GRADE DYSPLASIA USING PHOTODYNAMIC THERAPY” (Health Research, Inc, priority 2007, published 2010):

Experiments:
[1] = test system: esophageal high grade dysplasia; assay: Photodynamic therapy trials, response of high grade dysplasia (phase I/II HPPH, phase III PHOTOFRIN); type: in vivo, human; details: for Response After First Treatment, CR (complete ablation of high grade dysplasia): after first PDT treatment, patients with high grade dysplasia; for Response After Second Treatment, expected cure rate / Response After Third Treatment, expected cure rate: calculated from first-treatment rate applied to remaining uncured
Procedure: The method of the invention includes the steps of: • injecting HPPH in a physiologically compatible medium into a patient having high grade esophageal dysplasia to provide a dose level of 3 through 5 mg/m^2 of body surface area, preferably 3 through 4 mg/m^2 of body surface area. • waiting for a time period of 24 through 60 hours to permit preferential absorption of the HPPH into the high grade dysplasia tissue, and • exposing the esophageal high grade dysplasia tissue to light at a wavelength of about 670±5 nm at an energy of from about 75 to about 200 Joules/cm, preferably 75 to about 150 Joules/cm.
Injection of the HHPH is preferably accomplished intravenously usually over a time period of 0.75 to 3 hours in a physiologically compatible medium. The time period is functionally dependent upon rate of infusion and dose level desired The concentration is preferably 0.5-through 1.5 mg/ml in medium and the medium is preferably 0.1% polysorbate 80, 2% ethyl alcohol and 5% glucose in normal saline.
Exposure is accomplished using a fiber optic carrying laser light emitted by a laser. The laser may be any suitable laser emitting light at the wavelength and energy desired, e.g. a dye or diode laser. Exposure may be adjusted by length of time of exposure and/or adjustment of light intensity.
(§1) Using the above parameters, a phase I/II trial using HPPH and a phase III trial using PHOTOFRIN™, the latter approved by the United States Food and Drug Administration, the following results for response of high grade dysplasia were obtained, with CR being defined as complete ablation of high grade dysplasia.

[2] = Normal tissue damage after photodynamic therapy (strictures; erythema, edema and necrosis); type: in vivo, human; details: after first PDT treatment
Procedure: Nevertheless, PHOTOFRIN™ at an optimized dose level of 2 mg/kg body weight and activation at its preferential light absorption wavelength of 630 nm, and optimized light exposure results in a first treatment complete cure rate of about 32 percent and a two treatment complete cure rate of about 58 percent and a three treatment complete cure rate of about 77 percent. Unfortunately, the treatment also results in significant damage to surrounding normal tissue. Normal tissue damage for PHOTOFRIN™, as measured by percent of strictures at only a single treatment is about 12% and using other reported data concerning PHOTOFRIN™ treatment, is greater than 20 percent based upon toxicity as determined by the presence of erythema, edema and necrosis.
as §1

[3] = treatment concentration of 2 mg/kg; cited from earlier work
[4] = test system: esophageal high grade dysplasia; details: 2 mg/kg body weight, 630 nm, optimized light exposure; cited from earlier work
[5] = cited from earlier work

Substance	effectiveness against high grade dysplasia and side effects compared with PHOTOFRIN ([1]; 3 to 5 mg/m^2 of body surface area, light at 670±5 nm)	Response After First Treatment, CR (complete ablation of high grade dysplasia) [1] [% CR]	Response After Second Treatment, expected cure rate [1]	Response After Third Treatment, expected cure rate [1]	First Treatment Normal Tissue Damage, strictures [2] [% strictures]	phototoxicity [3]	first treatment complete cure rate [4]	three treatment complete cure rate [4]	two treatment complete cure rate [4]	Response After Second Treatment, cure rate (observed) ([1]; after second PDT treatment)	Response After Third Treatment, cure rate (observed) ([1]; after third PDT treatment)	Normal tissue damage as measured by percent of strictures ([5]; at only a single treatment)	Normal tissue damage based upon toxicity as determined by the presence of erythema, edema and necrosis ([5]; other reported data concerning PHOTOFRIN treatment)
3-(1-hexyloxy) ethyl-derivative of pyropheophorbide-a [HPPH]	more effective against high grade dysplasia with fewer side effects than PHOTOFRIN™	49	74% expected cure rate	87% expected cure rate (based	3								
porfimer sodium [PHOTOFRIN ™]		32	54% expected cure rate (based upon	71% expected cure rate (based upon	12	can cause serious phototoxicity	about 32%	about 77%	about 58%	58% cure rate (observed)	77% cure rate (observed)	about 12%	greater than 20%
